{
  "source": "patent US12256733B2",
  "about": "“Antimicrobial mixture containing 4-(3-ethoxy-4-hydroxyphenyl)butan-2-one and an acid or silver-based compound, and cosmetic composition containing same” (L'OREAL, priority 2018, dated 2025)",
  "experiment_in_all_cases": "Synergistic antimicrobial activity as MIC, 96-well microplate, optical density at 620 nm",
  "assay_type_in_all_cases": "cell-based",
  "key": {"[1]": {"test_system": "Enterococcus faecalis ATCC 33186", "excerpt": "(§1) 1] with: • MIC of A with B: minimum concentration of product A in the combination A+B which makes it possible to obtain an inhibitory effect; • MIC of B with A: minimum concentration of product B in the combination A+B which makes it possible to obtain an inhibitory effect; • MIC of A: minimum inhibitory concentration of product A alone; • MIC of B: minimum inhibitory concentration of product B alone. This formula was described for the first time in the article by F. C. Kull, P. C. Eisman, H. D. Sylwestrowka, and R. L. Mayer, Applied Microbiology 9:538-541, 1961.\nThe microbial strain Enterococcus faecalis ATCC 33186 and a double-concentration BHI (Brain Heart Infusion) broth liquid culture medium were used.\n(§2) A 96-well microplate at an incubation temperature of 32.5° C. is used.\n(§3) The incubation time of the microplate is: • from 24 to 30 h under aerobic conditions for microbial Aspergillus niger ATCC 6275; • from 18 to 24 h under aerobic conditions for Candida albicans ATCC 10231, Pseudomonas aeruginosa ATCC 9027 and Staphylococcus aureus ATCC 6538; • from 24 to 48 h under aerobic conditions for Enterococcus faecalis ATCC 33186. Tests\n(§4) A 10% (weight/volume) stock solution was prepared by mixing 1 g of compound in 9 ml of aqueous 1‰ agar solution. Successive dilutions were made with the 1‰ agar solution.\n(§5) 50 μl of each of the daughter solutions obtained containing compound A or B are added to the microplate wells. 100 μl of Sabouraud liquid nutrient broth inoculated at double concentration with the Aspergillus niger strain and 50 μl of aqueous 1‰ agar solution are also added thereto.\n(§6) 50 μl of each of the daughter solutions obtained containing compound A and 50 μl of each of the daughter solutions obtained containing compound B are added to the microplate wells. 100 μl of Sabouraud liquid nutrient broth inoculated at double concentration with the strain Aspergillus niger are also added thereto.\n(§7) A positive microbial growth control was also prepared. The positive microbial growth control corresponds to a mixture of 100 μl of aqueous 1‰ agar solution with 100 μl of Sabouraud liquid nutrient broth inoculated at double concentration with the strain Aspergillus niger in the absence of compounds A and B.\n(§8) An absorbance control was performed in parallel on compounds A and B alone. This control corresponds to 100 μl of double concentration sterile Sabouraud liquid nutrient broth+100 μl of double concentration compound A or B.\n(§9) In the three cases (absorbance control, growth control and test), the final volume present in each of the microplate wells is 200 μl.\n(§10) The test as described above (tests, absorbance control and growth control) was performed again to test the combination A+B on the following strains Enterococcus faecalis, Staphylococcus aureus, Pseudomonas aeruginosa, Candida albicans, where appropriate."}, "[2]": {"test_system": "Candida albicans ATCC 10231", "excerpt": "as §1\n(§11) When the FIC index value is less than or equal to 1, it is considered that the combination of test compounds has a synergistic effect.\nThe microbial strain Candida albicans ATCC 10231, and a double-concentration Sabouraud broth liquid culture medium were used (i.e. a mixture of 5 g of Phytagel+0.6 g Tween 40+60 g of Sabouraud broth).\nas §2, §3, §4, §5, §6, §7, §8, §9, §10"}, "[3]": {"test_system": "Aspergillus niger ATCC 6275", "excerpt": "as §1\nThe microbial strain Aspergillus niger ATCC 6275, and a double-concentration Sabouraud broth liquid culture medium supplemented with polyoxyethylenated (20 OE) sorbitan monopalmitate (Tween 40 from Croda) and Phytagel© BioReagent were used (i.e. a mixture of 5 g of Phytagel+0.6 g of Tween 40+60 g of Sabouraud broth).\nas §2, §3, §4, §5, §6, §7, §8, §9\n(§12) In the two cases (test and control), the inoculum represents the concentration of the Aspergillus niger strain present in the final volume of the wells (200 μl) and is between 2 and 6×10^5 cfu/ml of Aspergillus niger."}, "[4]": {"test_system": "Staphylococcus aureus ATCC 6538", "excerpt": "as §1, §11\nThe microbial strain Staphylococcus aureus ATCC 6538 and a double-concentration nutrient broth liquid culture medium were used.\nas §2, §3, §4, §5, §6, §7, §8, §9, §12, §10\nThe following results were obtained with the compound B1=trisodium salt of ethylenediaminedisuccinic acid (as an aqueous solution at 30% by weight): sold under the name Natrlquest E30 by the company Innospec Active Chemicals."}, "[5]": {"settings": "0.0625% A alone (active material weight %)"}, "[6]": {"settings": "first concentration with growth <= 25%"}},
  "data": [
    {"compound": "CCOc1cc(CCC(C)=O)ccc1O", "note": "[A, 4-(3-ethoxy-4-hydroxyphenyl)butan-2-one]", "values": [
      {"measurement": "microbial growth percentage", "setting": "[1]; [5]", "value": 31, "unit": "%"},
      {"measurement": "microbial growth percentage", "setting": "[1]; 0.125% A alone", "value": 36, "unit": "%"},
      {"measurement": "microbial growth percentage", "setting": "[1]; 0.25% A alone", "value": 39, "unit": "%"},
      {"measurement": "microbial growth percentage", "setting": "[1]; 0.5% A alone", "value": "−9", "unit": "%"},
      {"measurement": "MIC of product alone", "setting": "[1]; [6]", "value": 0.5, "unit": "%"},
      {"measurement": "microbial growth percentage", "setting": "[2]; [5]", "value": 76, "unit": "%"},
      {"measurement": "microbial growth percentage", "setting": "[2]; 0.125% A alone", "value": 64, "unit": "%"},
      {"measurement": "microbial growth percentage", "setting": "[2]; 0.25% A alone", "value": 36, "unit": "%"},
      {"measurement": "microbial growth percentage", "setting": "[2]; 0.5% A alone", "value": 5, "unit": "%"},
      {"measurement": "% MIC of A alone", "setting": "[2]; [6]", "value": 0.5, "unit": "%"},
      {"measurement": "microbial growth percentage", "setting": "[3]; 0.025% A alone (weight %)", "value": 44, "unit": "%"},
      {"measurement": "microbial growth percentage", "setting": "[3]; 0.05% A alone", "value": 32, "unit": "%"},
      {"measurement": "microbial growth percentage", "setting": "[3]; 0.1% A alone", "value": 13, "unit": "%"},
      {"measurement": "% MIC of A alone", "setting": "[3]; [6]", "value": 0.1, "unit": "%"},
      {"measurement": "microbial growth percentage", "setting": "[4]; [5]", "value": 76, "unit": "%"},
      {"measurement": "microbial growth percentage", "setting": "[4]; 0.125% A alone", "value": 72, "unit": "%"},
      {"measurement": "microbial growth percentage", "setting": "[4]; 0.25% A alone", "value": 71, "unit": "%"},
      {"measurement": "microbial growth percentage", "setting": "[4]; 0.5% A alone", "value": 40, "unit": "%"},
      {"measurement": "microbial growth percentage", "setting": "[4]; 1% A alone", "value": "−23", "unit": "%"},
      {"measurement": "% MIC of A alone", "setting": "[4]; [6]", "value": 1, "unit": "%"}
    ]},
    {"compound": "O=C([O-])C[C@H](NCCN[C@@H](CC(=O)[O-])C(=O)O)C(=O)[O-].[Na+].[Na+].[Na+]", "note": "[B1, trisodium salt of ethylenediaminedisuccinic acid]", "values": [
      {"measurement": "microbial growth percentage", "setting": "[4]; 0.0375% B1 alone", "value": 97, "unit": "%"},
      {"measurement": "microbial growth percentage", "setting": "[4]; 0.075% B1 alone", "value": 80, "unit": "%"},
      {"measurement": "microbial growth percentage", "setting": "[4]; 0.15% B1 alone", "value": 66, "unit": "%"},
      {"measurement": "microbial growth percentage", "setting": "[4]; 0.3% B1 alone", "value": 37, "unit": "%"},
      {"measurement": "microbial growth percentage", "setting": "[4]; 0.6% B1 alone", "value": 1, "unit": "%"},
      {"measurement": "% MIC of B1 alone", "setting": "[4]; [6]", "value": 0.6, "unit": "%"}
    ]},
    {"compound": "CCCCCC1C(O)CCC1CC(=O)[O-].[Na+]", "note": "(stereo not drawn) [B2, sodium salt of 3-hydroxy-2-pentylcyclopentaneacetic acid]", "values": [
      {"measurement": "microbial growth percentage", "setting": "[2]; 0.34% B2 alone", "value": 43, "unit": "%"},
      {"measurement": "microbial growth percentage", "setting": "[2]; 0.68% B2 alone", "value": 6, "unit": "%"},
      {"measurement": "% MIC of B2 alone", "setting": "[2]; [6]", "value": 0.68, "unit": "%"}
    ]},
    {"compound": "O=C([O-])CNCO.[Na+]", "note": "[B4, sodium hydroxymethylglycinate]", "values": [
      {"measurement": "microbial growth percentage", "setting": "[1]; 0.005% B4 alone", "value": 32, "unit": "%"},
      {"measurement": "microbial growth percentage", "setting": "[1]; 0.01% B4 alone", "value": 11, "unit": "%"},
      {"measurement": "% MIC of B4 alone", "setting": "[1]; [6]", "value": 0.1, "unit": "%"}
    ]},
    {"compound": "silver citrate hydrate [B3]", "values": [
      {"measurement": "microbial growth percentage", "setting": "[3]; 0.025% B3 alone", "value": 47, "unit": "%"},
      {"measurement": "microbial growth percentage", "setting": "[3]; 0.05% B3 alone", "value": 40, "unit": "%"},
      {"measurement": "microbial growth percentage", "setting": "[3]; 0.1% B3 alone", "value": 9, "unit": "%"},
      {"measurement": "% MIC of B3 alone", "setting": "[3]; [6]", "value": 0.1, "unit": "%"}
    ]}
  ]
}
